Source: a melting point compilation (Tetko et al.; mined from patent text by program, amines drawn as free bases though some values may be those of a salt)

Compared with `O=[N+]([O-])c1cn2c(n1)OC[C@@H](OCc1cnc(Cl)cn1)C2`, `CC(C)(C)Nc1nc(N)nc2c1ncn2C1C=CC(CO)C1` (stereo not given) is lower in melting point: 181 to 183 °C for the first, 161 to 163 °C for the second.

First: CCCCCCCCCCCc1ccc(F)c(-c2nc(-c3ccccc3Cl)nn2C)c1
Second: CCCCCCCCCCCCSCCOc1ccc(CCC(=O)OC)cc1
The melting point of the first is lower: 35 to 37 °C for the first, 48 °C for the second.

Compared with `CCCCCC[C@H](C)COC(=O)c1ccc(-c2ccc(O)cc2)cc1`, `CCOC(=O)c1ccc(CCN2CC=C(c3c[nH]c(-c4ccc(F)cc4)c3-c3ccncc3)CC2)cc1` is higher in melting point: 89 °C for the first, 217 to 218 °C for the second.

First: Cc1cc(C(C)C(=O)O)ccc1C(=O)c1cccs1 (stereo not given)
Second: Cn1c(CC(=O)O)ccc1C(=O)c1cccs1
The melting point of the first is lower: 100 °C for the first, 141 to 142 °C for the second.

First: C=C1CCCc2c(C(=O)OCC)n(C)c3cccc1c23
Second: Cc1c(S(C)(=O)=O)c2cccc(Cl)c2n1CC1=NCCN1
The melting point of the first is lower: 45 to 49 °C for the first, 206 to 208 °C for the second.

Compared with `COc1nc2cccccc-2n1`, `COc1ccccc1Sc1ccccc1C(=O)O` is higher in melting point: 94 °C for the first, 198 to 200 °C for the second.

First: COc1cc(COc2ncccc2CC(=O)O)ccc1OCc1nc(-c2ccccc2)oc1C
Second: O=C(O)CN1C(=O)C(=Cc2cc(OCc3ccccc3)c(OCc3ccccc3)c(OCc3ccccc3)c2)SC1=S
The melting point of the first is lower: 145 to 146 °C for the first, 213 to 216 °C for the second.

First: COc1cccc(-c2cc(N)c3cc(OC)ccc3n2)c1
Second: COc1ccc(-c2nc3c(OC)cccc3s2)cc1
The melting point of the first is higher: 148 to 149 °C for the first, 86 to 88 °C for the second.

First: CC(C)CN(C)C1=NS(=O)(=O)c2cccc(Cl)c21
Second: O=S1(=O)N=C(c2cccc(Cl)c2)c2ccccc21
The melting point of the first is higher: 160 to 162 °C for the first, 149 to 150 °C for the second.

Compared with `CCn1cc(CN(C(=O)C2CCCc3cc(OCc4ccccc4)ccc32)c2ccc(C(C)C)cc2)cn1` (stereo not given), `COc1ccc(-c2coc3cc(OCc4ccccc4)ccc3c2=O)cc1` is higher in melting point: 122 to 124 °C for the first, 181 to 183 °C for the second.

First: C[C@@H]1CNCc2cc3ccc(C(F)(F)F)cc3n21
Second: Fc1ccc(Nc2nc(Cl)nc(Cl)n2)cc1C(F)(F)F
The melting point of the first is higher: 123 to 125 °C for the first, 114 to 117 °C for the second.

First: Cc1cc(-c2nc3ccc(CCN4CCCC4)cc3c(=O)[nH]2)cc(C)n1
Second: COc1ccccc1-c1cccn2nc(Nc3ccc4c(c3)CCN(CCS(C)(=O)=O)CC4)nc12
The melting point of the first is higher: 212 to 213 °C for the first, 91 to 94 °C for the second.

First: COc1ccc(C(=O)Nc2ccccc2)cc1N(S(=O)(=O)c1cc(Cl)cc(Cl)c1)S(=O)(=O)c1cc(Cl)cc(Cl)c1
Second: COc1cc(C(=O)O)ccc1CNC(=O)C1Cc2ccccc2N1S(=O)(=O)c1ccc(-c2cccc(C(F)(F)F)c2)cc1 (stereo not given)
The melting point of the first is higher: 228 to 231 °C for the first, 108 to 120 °C for the second.

First: O=C(O)CCCNCCC(=O)O
Second: CCCCCCNC(=O)Oc1cccc(NC(=O)CC(C)=O)c1
The melting point of the first is higher: 148 to 151 °C for the first, 125 °C for the second.

Compared with `Fc1ccc(OC(=S)Nc2ccc(-c3ncn(-c4ccc(OC(F)(F)F)cc4)n3)cc2)cc1`, `Cc1c(C(=O)Nc2ccc(Oc3ccccc3)c(C#N)c2)cnn1-c1ccc(F)cc1` is higher in melting point: 164 to 169 °C for the first, 182 to 183 °C for the second.

First: COC(=O)c1cc(C(=O)c2ncc3ccccn23)ccc1[N+](=O)[O-]
Second: CSc1ccc2ncc([N+](=O)[O-])c(-c3ccccc3)c2c1
The melting point of the first is higher: 151 °C for the first, 131 to 133 °C for the second.

First: CCOC(=O)NCCC12CC(c3ccccc31)c1ccccc12
Second: CC=C1c2ccccc2CC(=O)c2ccccc21
The melting point of the first is higher: 122 to 123 °C for the first, 93 to 95 °C for the second.

Compared with `CC(C)(C#N)c1ccc(C#N)cc1`, `CC(Oc1ccc(C(C)(C)C)cc1C(C)(C)C)C(=O)O` (stereo not given) is lower in melting point: 122 to 123 °C for the first, 106 to 111 °C for the second.

First: CSc1nc(C)c(CCCl)c(=O)n1C
Second: CCOC(=O)C=CCn1c(C(=O)c2cc(C)cc(C)c2)c(CC)c(=O)[nH]c1=O
The melting point of the first is lower: 135 to 137 °C for the first, 157 to 158 °C for the second.

Compared with `C=CC1CN(S(=O)(=O)c2ccc(C)cc2)CCN1S(=O)(=O)c1ccc(C)cc1` (stereo not given), `Fc1ccc(N2CCN(CCCOc3ccc(-c4nnco4)cc3)CC2)cc1` is lower in melting point: 177 to 178 °C for the first, 157 to 158 °C for the second.

First: COC(=O)c1cccc(C(=O)OC)c1S(=O)(=O)NC(=O)Nc1nc(OC)cc(OC)n1
Second: COC(=O)CN(c1cc(OCc2ccccc2)cc2ccc(OC)cc12)S(N)(=O)=O
The melting point of the first is higher: 164 to 167 °C for the first, 137 to 139 °C for the second.

First: CS(=O)(=O)c1c(F)nc(F)nc1F
Second: NS(=O)(=O)c1ccccc1-c1ccno1
The melting point of the first is lower: 103 to 105 °C for the first, 132 to 135 °C for the second.

First: CC(=O)c1ccc2[nH]c3ccc(C(C)=O)cc3c2c1
Second: COC(=O)c1ccc(/C=C(\C)c2ccc3c(c2)SC(C)(C)S3)cc1
The melting point of the first is higher: 241 °C for the first, 86 to 87 °C for the second.

First: CC(C)(C)CCCOC1CCC2C3CC=C4CC(O[Si](C)(C)C(C)(C)C)CCC4(C)C3CCC12C (stereo not given)
Second: COc1cc(C2=C(C(C)(C)C)C(C)(C)CO2)cc(OC)c1Br
The melting point of the first is lower: 138 to 139 °C for the first, 139 to 140 °C for the second.

First: OC(COc1ccc(Cl)cc1)CSCc1ccc(Cl)cc1 (stereo not given)
Second: C#CCOc1ccc(Cc2nnc(Cl)c3ccccc23)cc1
The melting point of the first is lower: 107 to 108 °C for the first, 129 to 131 °C for the second.

First: CCC(Oc1ccc(C(C)(C)CC)cc1C(C)(C)CC)C(=O)Nc1cc(O)c(NC(=O)c2ccccc2NS(C)(=O)=O)cc1Cl (stereo not given)
Second: CC(C)(C)C(=O)Oc1cc(OS(=O)(=O)C(F)(F)F)cc2oc(-c3ccccc3)cc(=O)c12
The melting point of the first is higher: 199 to 201 °C for the first, 126 to 128 °C for the second.

First: CC(=O)Nc1ccc(Nc2ncnc3[nH]cc(C(=O)c4ccccc4)c23)cc1
Second: Cc1cccc(NC(=O)NC2N=C(c3ccccc3F)c3ccccc3N(Cc3nc4ccccc4o3)C2=O)c1 (racemic)
The melting point of the first is higher: 263 to 264 °C for the first, 209 to 210 °C for the second.

First: CCC(C)(CC)NC(=NC#N)Nc1cccnc1
Second: CC(C)(C)C(NC(=O)Cc1ccc(Cl)cc1)NC(=NC#N)Nc1cccnc1Cl (stereo not given)
The melting point of the first is higher: 184 to 186 °C for the first, 174 to 175 °C for the second.

First: COc1ccc(-c2c(Cl)c(Cn3cncn3)nc3sc4c(c23)CCN(Cc2ccccc2)C4)cc1OC
Second: CCN1CCC/C1=C\c1nc(-c2ccc(F)cc2)c(-c2ccncc2)n1CCCc1ccccc1
The melting point of the first is higher: 165 to 166 °C for the first, 127 to 128 °C for the second.

Going from `COC(=O)C(F)=CC1C(C(=O)OC(C#N)c2cccc(Oc3ccccc3)c2)C1(C)C` (stereo not given) to `Cc1ccc(C(=O)C=Cc2ccccc2)c(C)c1`, the melting point falls from 70 °C to 68 °C.

Compared with `O=S(=O)(NC(Cc1ccc(O)cc1)c1ccccc1)c1ccc(Cl)cc1` (stereo not given), `O=C(C=Cc1ccc(Cl)cc1)C(CC=Cc1ccccc1)c1ccccc1` (stereo not given) is lower in melting point: 174 to 178 °C for the first, 92 to 95 °C for the second.

First: CC(C)(C)c1ccc(Cn2ccc3ccc(-c4ccc(C(F)(F)F)cc4)cc32)cc1
Second: O=C(N[C@H](Cc1ccc(CC(F)(F)C(F)(F)F)cc1)[C@@H](O)c1cccc(Cl)c1)c1cccc2c(Cl)cccc12 (racemic)
The melting point of the first is lower: 134 to 135 °C for the first, 216 to 217 °C for the second.

First: O=C(c1cccnc1)c1cc2cc(Br)ccc2o1
Second: CC(C)(C)c1csc(-c2cc3cc(CC(C(=O)O)C(=O)O)ccc3o2)n1
The melting point of the first is lower: 144 to 145 °C for the first, > 320 °C for the second.

Compared with `O=C(NCCc1ccc([N+](=O)[O-])cc1)C(F)(F)F`, `O=C(CCC1CCCC1)Nc1ccc(-n2nc(C(F)(F)F)cc2C(F)(F)F)cc1` is higher in melting point: 96 to 97 °C for the first, 130 to 132 °C for the second.

Compared with `CC(C)(C)OC(=O)NCCCCn1cnc2c(Cl)nc3ccccc3c21`, `O=C(O)CCCCCCCn1cnc(-c2ccccc2)c1-c1ccccc1` is lower in melting point: 148 to 150 °C for the first, 130 °C for the second.

First: CCCc1c(OCCC(C)(C)C(=O)NCCCCc2cccnc2)ccc(C(C)=O)c1O
Second: CCCCCCN(C(=O)Cc1ccccc1)c1nnc(C)s1
The melting point of the first is lower: 80 to 83 °C for the first, 90 °C for the second.

First: CC[C@H](C)[C@H](NC(=O)OCc1ccccc1)C(=O)Nc1nncs1 (racemic)
Second: CCN(CC)C(=O)Oc1cc(C(C)C)ccc1C1(O)C(=O)c2ccccc2C1=O
The melting point of the first is higher: 145 to 149 °C for the first, 103 to 106 °C for the second.

Compared with `COc1ccc([C@@H]2Sc3cc(Cc4ccc(F)cc4)ccc3N(CCN(C)C)C(=O)[C@@H]2OC(C)=O)cc1`, `O=C(c1ccc(F)cc1)c1cc(F)ccc1OCCCCl` is lower in melting point: 154 to 156 °C for the first, 60 °C for the second.

First: O=[N+]([O-])c1cccc(OCc2ccccc2)c1[N+](=O)[O-]
Second: NS(=O)(=O)Oc1ccc2ccccc2c1
The melting point of the first is lower: 100 to 101 °C for the first, 114 to 115 °C for the second.

Compared with `Cc1cc2c(c(C)c1N)C(c1ccc(C(C)C)cc1)CO2` (stereo not given), `COCC1(C)CCCOc2cc(/C=C/c3ccc(C(=O)O)cc3)ccc21` (stereo not given) is higher in melting point: 53 to 55 °C for the first, 194 to 196 °C for the second.

First: O=C(Cn1nc2ccccc2n1)Nc1ccc(-n2nc(C(F)(F)F)cc2C2CC2)nc1
Second: N#Cc1ccc(-c2ccc3cnc(Nc4ccc(N5CCOCC5)cc4)nn23)cn1
The melting point of the first is lower: 193 to 198 °C for the first, 280 to 283 °C for the second.

First: NC(=O)C1=C(C(=O)Nc2ccc(Cl)cc2F)CCCC1
Second: COc1cc(N)c(Cl)cc1C(=O)NCC1CNCCO1 (stereo not given)
The melting point of the first is lower: 150 to 151 °C for the first, 161 to 162 °C for the second.

First: CCN(C(=O)c1c(Cl)cccc1[Si](C)(C)C)C(OC)C(C)(C)C (stereo not given)
Second: CC(C)(C)c1cc(C(C)(C)C)c(=O)c2nc3ccccc3sc1-2
The melting point of the first is lower: 82 to 83 °C for the first, 137 to 141 °C for the second.

First: CCNC(=O)c1cc(N)c([N+](=O)[O-])cc1OC
Second: COc1cc(C(=O)O)cc(OC)c1Cl
The melting point of the first is higher: 235 to 239 °C for the first, 102 to 103 °C for the second.

First: FC(F)(F)c1cc(/C=C/c2ncon2)ccc1Cl
Second: Clc1ncnc2c1CCOc1ccccc1-2
The melting point of the first is lower: 85 to 87 °C for the first, 114 to 115 °C for the second.

First: COc1cc2c(c3c1OC(C)(C)C3)C(C)=NC(C)(C)C2
Second: CCC(=Cc1ccccc1)C1=CC=C2C(C1)C(C)(C)CCC2(C)C (stereo not given)
The melting point of the first is higher: 112 to 113 °C for the first, 65 °C for the second.

First: CCCn1nc(C(C)C)c(C(=O)O)c1Cc1ccc(-c2ccccc2S(=O)(=O)NC(=O)OCC(C)C)c(F)c1
Second: CCOC(=O)CNC1=NS(=O)(=O)c2ccccc21
The melting point of the first is lower: 77 to 82 °C for the first, 166 to 167 °C for the second.

First: O=S(c1ncccn1)c1cccc2cccnc12 (stereo not given)
Second: CCn1ccc2c(c1=O)CN=C(N1CCN(Cc3ccccc3)CC1)N2
The melting point of the first is lower: 152 to 155 °C for the first, 200 to 203 °C for the second.

Compared with `O=C(CS(=O)(=O)c1cccs1)C12CC3CC(CC(C3)C1)C2`, `CC(=O)c1ccc(C=C(Cl)Cl)s1` is lower in melting point: 118 to 119 °C for the first, 81 to 85 °C for the second.

First: O=P(O)(O)Cc1cc(C(F)(F)F)cc(C(F)(F)F)c1
Second: O=C1N(Cc2cc(=O)[nH]c(=O)[nH]2)c2ccccc2C12COc1cc3c(cc12)OCO3 (stereo not given)
The melting point of the first is lower: 206 to 208 °C for the first, > 300 °C for the second.
